These results are taken from ChEMBL document CHEMBL5331115, “Design, Synthesis, and Pharmacological Characterization of a Potent Soluble Epoxide Hydrolase Inhibitor for the Treatment of Acute Pancreatitis” (J Med Chem, 2023).

SMILES strings stand for the structures. Activity calls are given as the source filed them. The calls are words filed in the database; no cut-off is given here. Some results are limits rather than exact numbers.

Experiment [1] concerns Mus musculus. Briefly: Antiinflammatory activity in cerulein-induced CD-1 mouse assessed as reduction in serum AST at 10 mg/kg, ip administered on 0.5 and 2.5 hrs post first cerulein administration measured after 6 hrs by Hematoxylin and eosin staining based analysis. It counts as functional, organism-based.
The test system of experiment [2] is Mus musculus. Briefly: Antiinflammatory activity in cerulein-induced CD-1 mouse assessed as reduction in lung neutrophilia at 10 mg/kg, ip administered on 0.5 and 2.5 hrs post first cerulein administration measured after 6 hrs by Hematoxylin and eosin staining based analysis. The experiment is classed as functional, organism-based.
Experiment [3] relates to Mus musculus. Briefly: Antiinflammatory activity in cerulein-induced CD-1 mouse assessed as reduction in lung inflammation at 10 mg/kg, ip administered on 0.5 and 2.5 hrs post first cerulein administration measured after 6 hrs by Hematoxylin and eosin staining based analysis. The experiment is classed as functional, organism-based.
Experiment [4] relates to Mus musculus. Briefly: Antiinflammatory activity in cerulein-induced CD-1 mouse assessed as reduction of edema at 10 mg/kg, ip administered on 0.5 and 2.5 hrs post first cerulein administration measured after 6 hrs by Hematoxylin and eosin staining based analysis. The experiment is classed as functional, organism-based.
In experiment [5] the test system is Mus musculus. Briefly: Antiinflammatory activity in cerulein-induced CD-1 mouse assessed as reduction in serum ALT at 10 mg/kg, ip administered on 0.5 and 2.5 hrs post first cerulein administration measured after 6 hrs by Hematoxylin and eosin staining based analysis. The experiment is classed as functional, organism-based.
Experiment [6] has as its target T1, Prostaglandin G/H synthase 2 (Mus musculus, UniProt Q05769).
T1 sequence (Q05769 whole entry): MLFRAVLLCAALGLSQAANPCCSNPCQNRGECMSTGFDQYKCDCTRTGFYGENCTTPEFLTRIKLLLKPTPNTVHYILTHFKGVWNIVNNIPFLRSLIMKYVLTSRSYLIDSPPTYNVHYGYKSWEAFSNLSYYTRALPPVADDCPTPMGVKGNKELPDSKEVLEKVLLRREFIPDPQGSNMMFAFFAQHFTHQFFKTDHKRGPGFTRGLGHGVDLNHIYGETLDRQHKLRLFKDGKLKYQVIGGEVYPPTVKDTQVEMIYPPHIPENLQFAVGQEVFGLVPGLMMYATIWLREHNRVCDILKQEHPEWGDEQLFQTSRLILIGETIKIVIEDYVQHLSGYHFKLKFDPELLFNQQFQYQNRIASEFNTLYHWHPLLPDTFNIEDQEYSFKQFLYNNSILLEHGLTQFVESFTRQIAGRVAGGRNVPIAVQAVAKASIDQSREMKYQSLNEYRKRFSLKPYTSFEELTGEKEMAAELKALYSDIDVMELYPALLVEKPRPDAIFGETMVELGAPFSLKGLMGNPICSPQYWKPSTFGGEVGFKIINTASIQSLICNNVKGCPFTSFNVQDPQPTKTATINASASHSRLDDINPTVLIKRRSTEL
Briefly: Inhibition of COX-2 in LPS-stimulated mouse J774 cells assessed as inhibition of PGE2 production pretreated for 2 hrs followed by stimulation with LPS measured after 24 hrs by ELISA analysis. The experiment is classed as cell-based. (In an ELISA, binding on a coated surface is turned into a signal by an enzyme label.)

Experiment [7] has as its system Mus musculus. Briefly: Antiinflammatory activity in cerulein-induced CD-1 mouse assessed as reduction of cell infiltration at 10 mg/kg, ip administered on 0.5 and 2.5 hrs post first cerulein administration measured after 6 hrs by Hematoxylin and eosin staining based analysis. It counts as functional, organism-based.
In experiment [8] the test system is Mus musculus. Briefly: Antiinflammatory activity in cerulein-induced CD-1 mouse assessed as reduction of neutrophil numbers at 10 mg/kg, ip administered on 0.5 and 2.5 hrs post first cerulein administration measured after 6 hrs by Hematoxylin and eosin staining based analysis. It counts as functional, organism-based.
The test system of experiment [9] is Mus musculus. Briefly: Antiinflammatory activity in cerulein-induced CD-1 mouse assessed as reduction in pancreatic injury at 10 mg/kg, ip administered on 0.5 and 2.5 hrs post first cerulein administration measured after 6 hrs by Hematoxylin and eosin staining based analysis. It counts as functional, organism-based.

By IC50 is commonly meant the concentration that inhibits the measured activity by half. `CC(C)c1ccc(Cn2ccc3cc(NC(=O)NCC45C[C@H]6C[C@@H](C4)C[C@@H](C5)C6)ccc32)cc1`: the result in the experiment with Mus musculus [1], with Mus musculus [2], in the experiment on Mus musculus [3], in the experiment with Mus musculus [4], in the experiment with Mus musculus [5] and in the experiment with Mus musculus [7] was Active. In the experiment on Mus musculus [8], the outcome was Active. Also, the IC50 in experiment [6] was over 10 µM.

As for `O=C(O)CCCCCCCCCCCNC(=O)NC12CC3CC(CC(C3)C1)C2`, in the experiment on Mus musculus [9], the outcome was Active.
